Results as given in PMC6736568, “Discovery of Novel Anti-cryptosporidial Activities From Natural Products by in vitro High-Throughput Phenotypic Screening” (Frontiers in Microbiology, 2019).
Where a name gives a salt, the structure may show the parent alone. Read-outs that look alike come from different tables or passages of the source.

What was measured:
Cryptosporidium parvum = assay: qRT-PCR assay of the growth of C. parvum in vitro in HCT-8 host cells (primary and secondary screening, EC50); type: cell-based; conditions: Cryptosporidium parvum, HCT-8; for inhibition at 10 µM: primary screening at 10 uM, read-out: Inhibition (%); for inhibition at 3.3 µM: secondary screening at 3.3 uM, read-out: % Inhibition (3.3 uM)
[1] = primary screening at 10 uM, treated vs control

| Hs18S ΔCT (HCT-8 host cells (Hs18S); human, 41 h, 10 μM) | SMILES | cytotoxicity at 10 µM (in vitro) [%] | inhibition at 10 µM (Cryptosporidium parvum) [%] | Hs18S ΔCT (HCT-8 host cells (Hs18S); [1]) | cytotoxicity at 41 h, 10 µM (in vitro; human) [%] | cytotoxicity at 41 h, 10 µM (in vitro) [%] | inhibition at 3.3 µM (Cryptosporidium parvum) [%] |
| --- | --- | --- | --- | --- | --- | --- | --- |
|  | CC(=O)Oc1cc(OC(C)=O)c2c(c1)O[C@H](c1ccc(OC(C)=O)c(OC(C)=O)c1)[C@@H](OC(C)=O)C2 [CATECHIN PENTAACETATE] | -19.6 | 10.7 | -0.26 |  |  |  |
| -0.27 | COc1cc(O)c(C(=O)c2ccccc2)cc1O [CEAROIN] |  | -22.5 |  | -21 |  |  |
| -0.11 | C[C@@H]1CC[C@H]2C(C)(C)[C@H]3C[C@@]12CC[C@@]3(C)O [CEDROL] |  | -4.53 |  | -7.7 |  |  |
|  | CC(=O)O[C@]1(C)CC[C@@]23C[C@@H]1C(C)(C)[C@@H]2CC[C@H]3C [CEDRYL ACETATE] | 3.6 | 9.38 | 0.05 |  |  |  |
| 0.33 | COc1ccc2cc1Oc1ccc(cc1)C[C@H]1c3c(cc4c(c3Oc3cc5c(cc3OC)CCN(C)[C@@H]5C2)OCO4)CCN1C [CEPHARANTHINE] |  | 16.8 |  | 20.5 |  |  |
| -0.15 | CCOC(=O)CCCCCCCCCCCCC1C=CCC1 (centres unmarked) [CHAULMOOGRIC ACID, ETHYL ESTER] |  | -0.95 |  | -10.8 |  |  |
| -0.58 | O=C(O)CCCCCCCCCCCC[C@@H]1C=CCC1 [CHAULMOOGRIC ACID] |  | -4.94 |  | -49.1 |  |  |
| 0.27 | C[C@H](CCC(=O)O)[C@H]1CC[C@H]2[C@@H]3[C@H](O)C[C@@H]4C[C@H](O)CC[C@]4(C)[C@H]3CC[C@]12C [CHENODIOL] |  | 77.7 |  | 17.2 |  |  |
| -0.13 | O=C(/C=C/c1ccc(O)c(O)c1)O[C@@H]1C[C@](O)(C(=O)O)C[C@@H](O)[C@H]1O [CHLOROGENIC ACID] |  | -24.5 |  | -9.1 |  |  |
|  | CN(C)[C@@H]1C(O)=C(C(N)=O)C(=O)[C@@]2(O)C(O)=C3C(=O)c4c(O)ccc(Cl)c4[C@@](C)(O)[C@H]3C[C@@H]12 [CHLORTETRACYCLINE HYDROCHLORIDE] | -2 | -14.1 | -0.03 |  |  |  |
|  | C=C1CC[C@H](O)C/C1=C/C=C1\CCC[C@]2(C)[C@@H]([C@H](C)CCCC(C)C)CC[C@@H]12 [CHOLECALCIFEROL] | -15.8 | 0.08 | -0.21 |  |  |  |
|  | CC(C)CCC[C@@H](C)[C@H]1CC[C@H]2[C@@H]3CC[C@H]4CC(=O)CC[C@]4(C)[C@H]3CC[C@]12C [CHOLESTAN-3-ONE] |  | -36.7 | -0.48 |  | -39.9 |  |
|  | CCOC(=O)C1C(C=C(C)C)C1(C)C (centres unmarked) [CHRYSANTHEMIC ACID, ETHYL ESTER] |  | 24.6 | -0.97 |  | -95.7 | 91 |
|  | CC(C)=CC1C(C(=O)O)C1(C)C (centres unmarked) [CHRYSANTHEMIC ACID] | -24.6 | -13.4 | -0.32 |  |  |  |
| -0.13 | CC(C)=CC1C(CO)C1(C)C (centres unmarked) [CHRYSANTHEMYL ALCOHOL] |  | -16.9 |  | -9.5 |  |  |
| 0.48 | Cc1cc(O)c2c(O)c3c(O)cccc3cc2c1 [CHRYSAROBIN] |  | -8.96 |  | 28.2 |  |  |
|  | COc1cc(OC)c2c(=O)cc(-c3ccccc3)oc2c1 [CHRYSIN DIMETHYL ETHER] | -8.6 | 90.3 | -0.12 |  |  | -69 |

| Hs18S ΔCT (HCT-8 host cells (Hs18S); human, 41 h, 10 μM) | SMILES | cytotoxicity at 10 µM (in vitro) [%] | inhibition at 10 µM (Cryptosporidium parvum) [%] | Hs18S ΔCT (HCT-8 host cells (Hs18S); [1]) | cytotoxicity at 41 h, 10 µM (in vitro; human) [%] | cytotoxicity at 41 h, 10 µM (in vitro) [%] | inhibition at 3.3 µM (Cryptosporidium parvum) [%] |
| --- | --- | --- | --- | --- | --- | --- | --- |
| 0.14 | O=c1cc(-c2ccccc2)oc2cc(O)cc(O)c12 [CHRYSIN] |  | 20.3 |  | 9.3 |  |  |
| 0.17 | Cc1cc(O)c2c(c1)C(=O)c1cccc(O)c1C2=O [CHRYSOPHANOL] |  | -71.6 |  | 11.4 |  |  |
| -0.20 | Oc1cc(O)c2c(c1)O[C@H](c1ccc(O)c(O)c1)[C@@H](O)C2 [CIANIDANOL] |  | 2 |  | -14.9 |  |  |
|  | C=C[C@H]1CN2CC[C@H]1C[C@H]2[C@H](O)c1ccnc2ccccc12 [CINCHONIDINE] |  | 3.76 | -0.20 |  | -15.2 |  |
|  | C=C[C@H]1C[N@@]2CC[C@H]1C[C@@H]2[C@@H](O)c1ccnc2ccccc12 [CINCHONINE] |  | -10.5 | 0.01 |  | 0.4 |  |
|  | O=C(O)/C=C/c1ccccc1 [CINNAMIC ACID] | -31 | 2.86 | -0.39 |  |  |  |
|  | CC1=C2C(=CO[C@H](C)[C@H]2C)C(O)=C(C(=O)O)C1=O [CITRININ] | 8.3 | 8.51 | 0.13 |  |  |  |
| 0.38 | COc1cc(OC)c2ccc(=O)oc2c1 [CITROPTEN] |  | -43.6 |  | 23.1 |  |  |
|  | NC(=O)NCCC[C@H](N)C(=O)O [CITRULLINE] | 34.9 | -44.7 | 0.62 |  |  |  |
| 0.55 | CC(=O)OC1CCC23CC1(C)CCC2C(C)(C)CC3OC(C)=O (centres unmarked) [CLOVANEDIOL DIACETATE] |  | -0.83 |  | 31.9 |  |  |
|  | COc1cc2c(c(OC)c1OC)-c1ccc(=O)c(O)cc1[C@@H](NC(C)=O)CC2 [COLCHICEINE] | -34.9 | 13.7 | -0.43 |  |  |  |
|  | COc1cc2c(c(OC)c1OC)-c1ccc(OC)c(=O)cc1[C@@H](NC(C)=O)CC2 [COLCHICINE] | -26.5 | 24.9 | -0.34 |  |  |  |
| 0.14 | C=C[C@@]1(C)CC(=O)[C@]2(O)[C@@]3(C)[C@@H](O)CCC(C)(C)[C@@H]3[C@H](O)[C@H](OC(C)=O)[C@@]2(C)O1 [COLFORSIN] |  | 24.8 |  | 9.4 |  |  |
| -0.14 | C[C@H]1[C@H]2CC[C@H]3[C@@H]4CC=C5C[C@@H](N(C)C)CC[C@]5(C)[C@H]4CC[C@]23CN1C [CONESSINE] |  | -2.33 |  | -10.4 |  |  |
| 0.41 | CN1C(=O)CC[C@H]1c1cccnc1 [COTININE] |  | 42.6 |  | 24.7 |  |  |
| -0.05 | O=c1ccc2ccccc2o1 [COUMARIN] |  | 13 |  | -3.8 |  |  |

| SMILES | Hs18S ΔCT (HCT-8 host cells (Hs18S); human, 41 h, 10 μM) | cytotoxicity at 10 µM (in vitro) [%] | inhibition at 10 µM (Cryptosporidium parvum) [%] | Hs18S ΔCT (HCT-8 host cells (Hs18S); [1]) | cytotoxicity at 41 h, 10 µM (in vitro; human) [%] | cytotoxicity at 41 h, 10 µM (in vitro) [%] | inhibition at 3.3 µM (Cryptosporidium parvum) [%] |
| --- | --- | --- | --- | --- | --- | --- | --- |
| CC(C)CCC[C@@H](C)[C@H]1CC[C@H]2[C@@H]3CC=C4CC(=O)CC[C@]4(C)[C@H]3CC[C@]12C [CHOLEST-5-EN-3-ONE] | 0.04 |  | -37.5 |  | 2.7 |  |  |
| CC(C)CCC[C@@H](C)[C@H]1CC[C@H]2[C@@H]3CC=C4C[C@@H](O)CC[C@]4(C)[C@H]3CC[C@]12C [CHOLESTEROL] | -0.05 | -3.8 | -26.8 |  |  |  |  |
| COC(=O)CC[C@@H](C)[C@H]1CC[C@H]2[C@@H]3[C@H](O)C[C@@H]4C[C@H](O)CC[C@]4(C)[C@H]3C[C@H](O)[C@]12C [CHOLIC ACID, METHYL ESTER] | -0.11 |  | 42.1 |  | -7.7 |  |  |
| COc1c2c(cc3c1OCO3)CC[N+](C)=C2 [COTARNINE CHLORIDE] | -0.20 |  | -14.5 |  | -15.2 |  |  |
